According to US8906694B2, “Organometallic fluorescent sensors for nitric oxide detection and imaging” (The Florida International University Board of Trustees, priority 2012, dated 2014):

How the values were obtained:
[1] = Fluorescence spectroscopy NO sensing in solution after addition of NO donor MAHMA-NONOate; settings: NO donor MAHMA-NONOate in buffer solution; aerobic and anaerobic conditions for the THF complex
Protocol: A pilot Re(I)-phenanthroline complex: Re(phen)(CO)2(THF)(CF3SO3) complex was synthesized from Re(phen)(CO)3(CF3SO3) (Scheme 3) by photochemical substitution of a CO with THF in situ and was tested for NO sensing by fluorescence spectroscopy after the addition of the NO donor: MAHMA-NONOate (Cayman Pharmaceuticals) at the are 10 μM-200 μM range (FIGS. 1 and 2). […] It is worth mentioning the dye is highly sensitive to NO, since it is only used at a concentration of only 10 μM, and responds to concentrations of NO donor in the μM level as well (FIG. 5). […] Furthermore live cell experiments with Re(phen)(CO)2(THF)(CF3SO3) prepared by thermal substitution gave similar results.
A stepwise experimental protocol for preparation and testing of the Rhenium organometallic sensor and comparison with existing technology is as follows: • 1) Preparation of a stock solution of a 2.0 mM NO donor solution by dissolving 0.6 mg of (Z)-1-[N-Methyl-N-[6-(N-methylammoniohexyl)amino]]diazen-1-ium-1,2-diolate (Methylamine hexamethylene methylamine NONOate or MAHMA NONOate) in 0.01 M NaOH. Solution is kept at 4° C. until use. • 2) Preparation of a 1.0 mM stock solution of probe LRe(CO)3(OSO2CF3) in DMSO or THF (L is phen or substituted analog). For the Re probe the solution is undergoing the following steps: […]

[2] = test system: Rat Aortic Endothelial Cells; test: Fluorescence microscopy NO imaging in living cells with NO donor addition; format: cell-based; settings: for absorptivity of the dye into the cells: living cells, fluorescence microscopy
Source text: Rat Aortic Endothelial Cells acquired from Cell Biologics were used for the cell based experiments. Fetal Bovine Serum (FBS) and DMSO were bought from ATCC. Penicillin-Streptomycin and endothelial cell growth supplement from bovine neural tissue were bought from Sigma Aldrich. DMEM/F-12 medium, PBS and Trypsin (0.05% EDTA) were bought from Invitrogen. Cell culture flasks and dishes were bought from Fisher Scientific. MAHMA/NO was bought from Cayman Chemicals.
Cell culture: Rat Aortic Endothelial Cells were grown (passage 4-10) in DMEM/F-12 medium supplemented with 10% FBS, 1% penicillin-streptomycin, and endothelial cell growth supplement in a humidified tissue culture incubator at 37° C. equilibrated with 95% air/5% CO2. For experimentation, cells were cultured in 35×10 mm dishes seeded with 2×10^5 cells and used at 60-80% confluency.
After the loading phase with the organometallic Re-complex (10 μM for 45 min) cells were rinsed off excess dye using PBS buffer solution. This was followed by an exposure to 10 μM MAHMA/NO for 10-15 minutes. Images were then acquired with a fluorescence microscope (Olympus IX 81 fitted with a CCD camera (Qimaging) at 350 nm (excitation) and 450 nm (emission) with 20× zoom, with exposition time of 2668 ms. The data were analyzed with IPLAB software (BioVision Technologies).
Conditions of incubator: 37° C., 21% O2, 5% CO2, with cell culture harvested and plated for at least 24 hours.
[…] of Re(phen)(THF)(CO)2(CF3SO3) or Re(phen)(CO)2(PPh3)(CF3SO3) (1.6×10^−3 M) was prepared in THF. 62.5 μL of this solution was added to 138 μL of acetone. This new solution was added to 800 μL of 10 mM PBS (Phosphate Buffer Saline) buffer solution, resulting in v/v ratios of 6% THF, 14% acetone, and 80% Buffer. This new solution was further diluted 1/10 with PBS Buffer before added to the cells, resulting to final solvent composition of 0.6% THF, 1.4% acetone, and 98% v/v aqueous buffer. This final solution contains the organometallic Re dye at 10 μM concentration, (solution A) before contact with NO donor solutions.
A blank (0 μM NO donor: MAHMA NONOate) and 3 stock solutions (100 μM, 500 μM, 1 mM) MAHMA NONOate were prepared in NaOH 0.01M, which after addition to the media result to final NO donor concentrations of 0 μM, 1 μM, 5 μM, 10 μM.
The old media were poured out from the plates. The plates were rinsed 2 times with 1 mL PBS 10 mM. The next reagents were added to each plate in the following order: […] of DMEM/FBS/Penicillin Media, […] of PBS 10 mM, and 100 μL of Re complex stock in 20% organic mixture. The plates were incubated for 75 minutes.
The reactive media was poured out from the plate. The plates were rinsed 2 times with 1 mL PBS 10 mM. […]

SMILES	fluorescent response to NO donor addition in solution [1]	absorptivity of the dye into the cells ([2]; dye 10 μM)	fluorescence response to NO donor addition in living cells ([2]; dye 10 μM, MAHMA-NONOate 0-10 μM, λexc=350 nm, λem=450 nm)	toxicity to the cells ([2]; at the 10 μM level)
C1CCOC1.O=[C]=[Re]1(=[C]=O)([O]S(=O)(=O)C(F)(F)F)[N]2C=CC=c3ccc4c(c32)[N]1C=CC=4 [Re(phen)(CO)2(THF)(CF3SO3)]	responds directly to NO	good absorptivity	direct response	–
O=[C]=[Re]1(=[C]=O)([O]S(=O)(=O)C(F)(F)F)([PH](c2ccccc2)(c2ccccc2)c2ccccc2)[N]2C=CC=c3ccc4c(c32)[N]1C=CC=4 [Re(phen)(CO)2(PPh3)(CF3SO3)]	shows response to NO addition	good dye absorptivity into cells	–	no toxicity
